The text below walks through data of patent US9127001B2, “Substituted 4,5,6,7-tetrahydro-1H-pyrazolo[4,3-c]pyridines, their use as medicament, and pharmaceutical preparations comprising them” (Sanofi, priority 2011, dated 2015).

Test [1] concerns left atrium of the anesthetized pig. Description: Refractory period and left-atrial vulnerability in the anesthetized pig. The conditions noted are these: bolus 1 mg/kg, mean value n = 3. The test is classed as in vivo. As for the experimental part:
Investigation of the Refractory Period and the Left-Atrial Vulnerability in the Pig
The compounds were tested for prolongation of the refractory period and antiarrhythmic activity on the atrium of the anesthetized pig as described in the literature (Knobloch et al. 2002. Naunyn-Schmiedberg's Arch. Pharmacol. 366; 482-487). Here the anti-arrhythmic action relates to the inhibition of the occurrence of episodes of arrhythmias which are induced by a prematurely placed extra-stimulus (S2) in the left atrium (=left-atrial vulnerability). The refractory period values are stated in percent of the basal values 15 minutes after injection. Mean values for the refractory periods are shown from three rates (150, 200 and 250/min).
The action of 3-[5-Acetyl-1-(2,4-difluoro-benzyl)-4,5,6,7-tetrahydro-1H-pyrazolo[4,3-c]pyridin-3-yl]-benzonitrile (6a) on the refractory period of the left atrium and antiarrhythmic activity in the anesthetized pig after a bolus administration of 1 mg/kg is shown in table 1. From the results shown in table 1, it is seen that it was possible to prevent 61% of the induced arrhythmias.

The target of test [2] is Human TASK-1 channels (Homo sapiens (Human), UniProt O14649). Description: Activity on the TASK-1 channel in Xenopus oocytes (two-microelectrode voltage clamp). In kind it is cell-based. The conditions noted are these: for IC50: human TASK-1 expressed in Xenopus oocytes, currents during pulses to 40 mV, room temperature. In short, it runs like this:
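Human TASK-1 was expressed in defolliculated Xenopus laevis oocytes by in vitro-synthesised RNA injection and recorded by two-microelectrode voltage clamp. Oocytes were superfused with ND96 (pH 7.4) at room temperature, with compound added at rising concentrations. IC50 came from a general dose-response fit.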

Human TASK-1 channels, sequence (O14649 whole entry, the tested form may be a part): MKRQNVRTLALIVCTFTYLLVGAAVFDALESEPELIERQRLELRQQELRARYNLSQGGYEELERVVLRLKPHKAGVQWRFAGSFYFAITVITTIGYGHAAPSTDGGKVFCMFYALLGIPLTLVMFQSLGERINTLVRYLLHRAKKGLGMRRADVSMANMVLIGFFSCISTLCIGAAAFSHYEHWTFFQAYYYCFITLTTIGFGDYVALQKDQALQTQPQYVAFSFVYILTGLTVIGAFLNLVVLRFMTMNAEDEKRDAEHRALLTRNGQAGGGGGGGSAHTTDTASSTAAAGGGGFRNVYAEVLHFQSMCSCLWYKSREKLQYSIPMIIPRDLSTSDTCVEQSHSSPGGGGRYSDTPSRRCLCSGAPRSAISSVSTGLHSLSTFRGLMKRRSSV

For `CC(=O)N1CCc2c(c(-c3cccc(C#N)c3)nn2Cc2ccc(F)cc2F)C1` [Example 6a, 3-[5-Acetyl-1-(2,4-difluoro-benzyl)-4,5,6,7-tetrahydro-1H-pyrazolo[4,3-c]pyridin-3-yl]-benzonitrile], in test [1] (S2-induced arrhythmias, 3 measurements before vs. 3 during first hour after administration), the “% inhibition of the arrhythmias” value was 61%. In test [1] (left atrium, 15 minutes after injection, mean of three rates (150, 200 and 250/min)), the “% increase in the refractory period” value worked out at 14%. The same compound displayed a 50% inhibitory concentration (IC50) in test [2] of 95 nM.
In test [2], `CN(CCO)C(=O)N1CCc2c(c(-c3cccc(C#N)c3)nn2Cc2ccc(F)cc2F)C1` [Example 12e, 3-(3-Cyano-phenyl)-1-(2,4-difluoro-benzyl)-1,4,6,7-tetrahydro-pyrazolo[4,3-c]pyridine-5-carboxylic acid (2-hydroxy-ethyl)-methyl-amide] registered an inhibition at 5 µM of 65%.
In the case of `CC(=O)N1CCc2c(c(-c3cc(C#N)ccn3)nn2Cc2ccc(F)cc2F)C1` [Example 13a, 2-[5-Acetyl-1-(2,4-difluoro-benzyl)-4,5,6,7-tetrahydro-1H-pyrazolo[4,3-c]pyridin-3-yl]-isonicotinonitrile], in test [2], the IC50 is 422 nM.
The compound `CC(=O)N1CCc2c(c(-c3cccc(C#N)n3)nn2Cc2ccc(F)cc2F)C1` [Example 13b, 6-[5-Acetyl-1-(2,4-difluoro-benzyl)-4,5,6,7-tetrahydro-1H-pyrazolo[4,3-c]pyridin-3-yl]-pyridine-2-carbonitrile] yielded an IC50 in test [2] of 462 nM.
Compound `N#Cc1cccc(-c2nn(Cc3ccc(F)cc3F)c3c2CN(C(=O)CO)CC3)c1` [Example 14a, 3-[1-(2,4-Difluoro-benzyl)-5-(2-hydroxy-acetyl)-4,5,6,7-tetrahydro-1H-pyrazolo[4,3-c]pyridin-3-yl]-benzonitrile] displayed a concentration for half-maximal inhibition (IC50) in test [2] of less than 10000 nM.
